Measurements: patent publication US20100204107A1, “USE OF URODILATIN AS A THERAPEUTIC AGENT” (priority 2007, published 2010)

System: Human Peripheral Blood Mononuclear Cells (PBMC)
Assay: T cell proliferation assay (PHA, 3H-thymidine)
Assay type: cell-based
Conditions: 10 micrograms per ml, 3 days plus 12 hours 3H-thymidine

## Secretin
  % of PHA induced control: 100.5%
